Laboratory results as given in US20240385182A1, “MASKED FLUOROGENIC LIPID COMPOUNDS, LIPID PARTICLES COMPRISING THE SAME, AND METHODS OF USE THEREOF” (Rutgers, The State University of New Jersey, priority 2023, published 2024).
Values belong to the compound of their own block, whether it stands above or below them.

Key:
[1] = Photophysical characterization of probes and uncaged forms (relative fluorescence quantum yield, extinction coefficient, brightness); format: physicochemical; conditions: for Brightness: in M⁻¹·cm⁻¹ (unit assumed)
Protocol: (§1) The pKa of TEG-TC was determined to be 7.1±0.1 using UV-Vis spectrophotometric measurements. Under the confocal imaging conditions (pH 7.5-8.5 with cell-free assays, pH 7.4 with cells), a substantial population of the 7-hydroxycoumarin should exist in its aryloxide form. The change in coumarin fluorogenicity was assessed upon uncaging the probes from the oxobutylphenyl carbonate by measuring the relative fluorescence quantum yield (ΦFrel) values (Table 2). Coumarin 343 was used as a standard, which has an absolute fluorescence quantum yield ([…]) of 0.63 in ethanol. The ΦFrel values of TEG-TC-ONOO^− (entry 1) and DPPC-TC-ONOO^− (entry 3) were measured as 0.08 and 0.09, respectively. […] The ΦFrel values for TEG-TC (entry 2) and DPPC-TC (entry 4), which were synthesized independently, were measured as 0.66 and 0.64, respectively.
Next, the impact of caging and uncaging of the coumarin or fluorescein moieties on their fluorogenicity was assessed by measuring the relative fluorescence quantum yield (ΦFrel) values (Table 3). Coumarin 343 was used as the standard for measuring ΦFrel of the triazole-coumarin compounds (TEG-TC-H2S, TEG-TC, DPPC-TC-H2S, and DPPC-TC) whereas fluorescein for the triazole-fluorescein compounds (TEG-TF-H2O2, TEG-TF, and DPPC-TF-H2O2, and DPPC-TF). Relative to coumarin 343, whose absolute fluorescence quantum yield (ΦF) is 0.63 in ethanol, ΦFrels of the H2S probes TEG-TC-H2S (entry 1) and DPPC-TC-H2S (entry 3) were determined to be 0.07 and 0.03, respectively.
(§2) The pKa of TEG-TC was previously found to be to be 7.1±0.1 using UV-Vis spectrophotometric measurements. Under the fluorescence activation assay conditions that are employed here (Tris 50 mM, pH 7.5), a substantial population of the coumarin moiety is expected to be in its aryloxide anion form. Relative to fluorescein, whose ΦF is 0.79 in ethanol, ΦFrel values of the H2O2 probes TEG-TF-H2O2 (entry 5) and DPPC-TF-H2O2 (entry 7) were determined to be 0.04 and 0.02, respectively.

[2] = Confocal imaging of H2O2-sensing giant vesicles
Source text: FIGS. 14A-14B: giant vesicles (GVs) that can sense reductive (FIG. 14A) or oxidative (FIG. 14B) environments. Confocal images acquired for H2S-sensing GV at 405/475 nm (ex/em) (FIG. 14A) and H2O2 sensing GV at 490/520 nm (ex/em) (FIG. 14B). Lipid compositions of GVs: POPC, POPG, cholesterol, and DPPC-TC-H2S (48:21:30:1 molar ratio; FIG. 14A); and POPC, POPG, cholesterol, and DPPC-TF-H2O2 (48.5:21:30:0.5; FIG. 14B). To label vesicle membranes, Liss-Rhod PE dye (563/580 nm) was introduced to the lipid mixture at an insignificant molar ratio (0.1 mol %). Concentrations of RSS and ROS were set to 500 and 100 μM, respectively. Scale bar=5 μm.
The redox sensing abilities of giant vesicles (GVs) comprising DPPC-TC-H2S or DPPC-TF-H2O2 were investigated. In most biomimetic systems that rely on compartmentalization, physical membrane boundaries are comprised of phospholipids and cholesterol. These lipid self-assemblies have dimensional properties (1-30 μm in diameter) relevant to those of a mammalian plasma membrane (10-100 μm), display physical characteristics feasible for confocal fluorescence imaging, and are conveniently utilized for bottom-up construction of biomimetic protocells. […]
The vesicle size distribution was analyzed by dynamic light scattering (DLS), confirming the presence of GVs. […]

[3] = in ethanol; standard; cited from earlier work
[4] = Fluorescence response of TEG-TC-ONOO^− to peroxynitrite in Tris buffer (plate reader)
Protocol: FIG. 7A: time-dependent change in relative fluorescence intensities for probe TEG-TC-ONOO^− (1 μM) and compound TEG-TC (1 μM) in Tris (50 mM, pH 7.5) upon addition of ONOO^− (600 μM). Filled square: TEG-TC, hollow square: TEG-TC+ONOO^−, filled circle: TEG-TC-ONOO^−, and hollow circle: TEG-TC-ONOO^−+ONOO^−. Error bars represent standard deviation, n=3. FIG. 7B: relative fluorescence intensity (F) with respect to the background fluorescence intensity (F0) of TEG-TC-ONOO^− in the absence or presence of redox species. Probe TEG-TC-ONOO^− (1 μM) was dissolved in Tris buffer (50 mM, pH 7.5) and subjected to RNS and ROS (600 μM): ONOO^−, NO·, H2O2, HO·, ^1O2, and O·^−. Data represent FIFO measurements for samples incubated for 60 min. Plate reader was set to excitation at 405 nm and emission at 475 nm. Error bars represent standard deviation, n=3. The response rate and magnitude of TEG-TC-ONOO^− against ONOO^− was evaluated by measuring the relative fluorescence intensities of samples containing TEG-TC-ONOO^− and TEG-TC (positive control) at 405 nm excitation (FIG. 7A). These samples, prepared in Tris buffer (50 mM, pH 7.5), were measured over 60 minutes of incubation with and without ONOO^−. Physiologically normal ONOO^− production rate in cells has been estimated to be in the single-digit μM range, while reaching up to 100 μM under dysregulated conditions. Guided by this information, and in agreement with the fluorescence titration conditions employed for cytosolic resorufin-based peroxynitrite sensors, it was reasoned that administering 600 μM of ONOO^− into a pH 7.5 medium would provide a steady level of effective ONOO^− within a biologically relevant concentration range of […]. […] The difference in fluorescence between the peroxynitrite-treated and untreated samples reached up to 5-fold at the end of 60 minutes. During this time period, the relative fluorescence intensity of the sample containing TEG-TC-ONOO^− became ˜85% of that of the sample containing TEG-TC (positive control). This trend of increasing fluorescence output was mirrored in the level of conversion of TEG-TC-ONOO^− into TEG-TC based on UV-Vis spectrophotometric measurements. The peroxynitrite-specificity of the probe design was assessed by subjecting TEG-TC-ONOO^− to other redox species, including NO·, hydrogen peroxide (H2O2), singlet oxygen (^1O2), hydroxyl radicals (HO·), and O2·^− (FIG. 7B). Change in fluorescence intensity following excitation at 405 nm was measured over 60 minutes of incubation of TEG-TC-ONOO^− with each species and presented based on the signal-to-background ratio F/F0, where F and F0 are defined as the fluorescence with and without the analyte. In the absence of a redox species, F/F0 for TEG-TC-ONOO^− increased only 13% (F/F0=1.13) over 60 minutes. Treatment of TEG-TC-ONOO^− with ONOO^− gave rise to ˜570% increase in fluorescence (F/F0=6.69).

[5] = Peroxynitrite-specificity: TEG-TC-ONOO^− subjected to other redox species; conditions: for F/F0: 60 min
Protocol: FIG. 7A: time-dependent change in relative fluorescence intensities for probe TEG-TC-ONOO^− (1 μM) and compound TEG-TC (1 μM) in Tris (50 mM, pH 7.5) upon addition of ONOO^− (600 μM). Filled square: TEG-TC, hollow square: TEG-TC+ONOO^−, filled circle: TEG-TC-ONOO^−, and hollow circle: TEG-TC-ONOO^−+ONOO^−. Error bars represent standard deviation, n=3. FIG. 7B: relative fluorescence intensity (F) with respect to the background fluorescence intensity (F0) of TEG-TC-ONOO^− in the absence or presence of redox species. Probe TEG-TC-ONOO^− (1 μM) was dissolved in Tris buffer (50 mM, pH 7.5) and subjected to RNS and ROS (600 μM): ONOO^−, NO·, H2O2, HO·, ^1O2, and O·^−. Data represent FIFO measurements for samples incubated for 60 min. Plate reader was set to excitation at 405 nm and emission at 475 nm. Error bars represent standard deviation, n=3. The peroxynitrite-specificity of the probe design was assessed by subjecting TEG-TC-ONOO^− to other redox species, including NO·, hydrogen peroxide (H2O2), singlet oxygen (^1O2), hydroxyl radicals (HO·), and O2·^− (FIG. 7B). Change in fluorescence intensity following excitation at 405 nm was measured over 60 minutes of incubation of TEG-TC-ONOO^− with each species and presented based on the signal-to-background ratio F/F0, where F and F0 are defined as the fluorescence with and without the analyte. In the absence of a redox species, F/F0 for TEG-TC-ONOO^− increased only 13% (F/F0=1.13) over 60 minutes. Treatment of TEG-TC-ONOO^− with ONOO^− gave rise to ˜570% increase in fluorescence (F/F0=6.69). […] NO·, a free radical RNS that serves as a signaling molecule in cells, had essentially no effect on fluorescence intensity (F/F0=1.03).

HeLa and RAW 264.7 cells = experiment: Subcellular localization of non-amphiphilic probes in cells treated directly; format: cell-based; conditions: 20 minutes, TEG-TC-ONOO− cells then stimulated
Protocol: Therefore, cells were treated with TEG-TC (positive control) or TEG-TC-ONOO− directly and incubated for 20 minutes. Those treated with TEG-TC-ONOO− were then stimulated via the methods described above. […] In the case of RAW 264.7 cells, the intracellular homogeneity of the signal was especially substantial.

[6] = pKa by UV-Vis spectrophotometric measurements; format: physicochemical
Protocol: as §1, §2

- Emmax [1]: 519.5 nm
- Exmax [1]: 495.2 nm
- Ext. Coeff. [1]: 10685 M⁻¹ cm⁻¹
- Relative Brightness ([1]; Table 3, brightness compared to that of DPPC-TF-H2O2): 1.0
- Brightness [1]: 214
- Quantum Yield (relative fluorescence quantum yield ΦFrel) ([1]; standard fluorescein): 0.02
SMILES: CCCCCCCCCCCCCCCC(=O)OCC(COP(=O)([O-])OCC[N+](C)(C)Cc1cn(-c2ccc3c(c2)C(=O)OC32c3ccc(OC(=O)OCc4ccc(B5OC(C)(C)C(C)(C)O5)cc4)cc3Oc3cc(OC(=O)OCc4ccc(B5OC(C)(C)C(C)(C)O5)cc4)ccc32)nn1)OC(=O)CCCCCCCCCCCCCCC (racemic) [DPPC-TF-H2O2]
- GV fluorescence at the membrane ([2]; GVs with POPC, POPG, cholesterol, H2O2 (100 PM) over 90 min): substantial fluorescence increase
- GV fluorescence intensities ([2]; equimolar other ROS (NO, ·OH, O2·^−)): comparable to those for the untreated GVs

SMILES: O=C(O)c1cc2cc3c4c(c2oc1=O)CCCN4CCC3 [Coumarin 343]
- absolute fluorescence quantum yield (ΦF) [3]: 0.63

- Emmax [1]: 472.0 nm
- Exmax [1]: 400.0 nm
- Ext. Coeff. [1]: 4475 M⁻¹ cm⁻¹
- Relative Brightness ([1]; Table 2, DPPC-TC-ONOO^− = 1.0): 1.4
- Brightness [1]: 358
- Quantum Yield (relative fluorescence quantum yield ΦFrel) ([1]; standard coumarin 343): 0.08
SMILES: O=C(Oc1ccc(CCC(=O)C(F)(F)F)cc1)Oc1ccc2cc(-n3cc(COCCOCCOCCO)nn3)c(=O)oc2c1 [TEG-TC-ONOO^−]
- F/F0 ([4]; ONOO^− 600 μM, 60 min, 405/475 nm): 6.69
- difference in fluorescence between peroxynitrite-treated and untreated samples ([4]; ONOO^− (600 PM), Tris 50 mM pH 7.5, end of 60 minutes): up to 5 fold
- relative fluorescence intensity as % of that of TEG-TC (positive control) ([4]; ONOO^− treated, 60 minutes): ~85%
- F/F0 ([4]; absence of a redox species, 60 minutes, 405 nm excitation): 1.13
- increase in F/F0 ([4]; absence of a redox species, over 60 minutes): 13%
- fluorescence compared to the sample untreated ([4]; probe 1 μM, ONOO^− (600 PM), Tris 50 mM pH 7.5, within the first 10 minutes): ~3 fold
- increase in fluorescence ([4]; treatment with ONOO^−, 60 min): ~570%
- relative fluorescence enhancement for ONOO^− compared to the other RNS and ROS [5]: ~36 fold
- F/F0 ([5]; H2O2 600 μM): 1.16
- fluorescence intensity stronger than background ([5]; H2O2, 60 min): 16%
- F/F0 ([5]; NO· 600 μM): 1.03
- subcellular distribution of signal (HeLa and RAW 264.7 cells): throughout the cells, including the nucleus

- pKa [6]: 7.1±0.1
- Emmax [1]: 471.4 nm
- Exmax [1]: 397.0 nm
- Ext. Coeff. [1]: 15613 M⁻¹ cm⁻¹
- enhanced brightness, uncaging product vs caged probe [1]: 28 fold
- Relative Brightness ([1]; Table 2, DPPC-TC-ONOO^− = 1.0): 41.1
- Relative Brightness ([1]; Table 3, brightness compared to that of DPPC-TC-H2S): 143.2
- Brightness [1]: 10305
- Quantum Yield (relative fluorescence quantum yield ΦFrel) ([1]; standard coumarin 343): 0.66
SMILES: O=c1oc2cc(O)ccc2cc1-n1cc(COCCOCCOCCO)nn1 [TEG-TC]
- subcellular distribution of signal (HeLa and RAW 264.7 cells): throughout the cells, including the nucleus
